The record followed here is PMC4731470, “Inhibitory Effect of Bridged Nucleosides on Thermus aquaticus DNA Polymerase and Insight into the Binding Interactions” (PLoS ONE, 2016).

Experiment [1] addresses T1, Taq DNA polymerase (Thermus aquaticus, UniProt P19821).
T1 construct: gene polA
Description: TaqMan qPCR kinetics (double-reciprocal plot); IC50 also by TaqMan qPCR and EvaGreen primer extension assay. The class given is biochemical. (In general: Quantitative PCR measures a nucleic acid by following its amplification.)

Experiment [2] deals with T1, Taq DNA polymerase. Description: TaqMan qPCR (IC50 […]); EvaGreen primer extension assay (IC50 […]). The class given is biochemical.

T1 sequence (P19821 whole entry): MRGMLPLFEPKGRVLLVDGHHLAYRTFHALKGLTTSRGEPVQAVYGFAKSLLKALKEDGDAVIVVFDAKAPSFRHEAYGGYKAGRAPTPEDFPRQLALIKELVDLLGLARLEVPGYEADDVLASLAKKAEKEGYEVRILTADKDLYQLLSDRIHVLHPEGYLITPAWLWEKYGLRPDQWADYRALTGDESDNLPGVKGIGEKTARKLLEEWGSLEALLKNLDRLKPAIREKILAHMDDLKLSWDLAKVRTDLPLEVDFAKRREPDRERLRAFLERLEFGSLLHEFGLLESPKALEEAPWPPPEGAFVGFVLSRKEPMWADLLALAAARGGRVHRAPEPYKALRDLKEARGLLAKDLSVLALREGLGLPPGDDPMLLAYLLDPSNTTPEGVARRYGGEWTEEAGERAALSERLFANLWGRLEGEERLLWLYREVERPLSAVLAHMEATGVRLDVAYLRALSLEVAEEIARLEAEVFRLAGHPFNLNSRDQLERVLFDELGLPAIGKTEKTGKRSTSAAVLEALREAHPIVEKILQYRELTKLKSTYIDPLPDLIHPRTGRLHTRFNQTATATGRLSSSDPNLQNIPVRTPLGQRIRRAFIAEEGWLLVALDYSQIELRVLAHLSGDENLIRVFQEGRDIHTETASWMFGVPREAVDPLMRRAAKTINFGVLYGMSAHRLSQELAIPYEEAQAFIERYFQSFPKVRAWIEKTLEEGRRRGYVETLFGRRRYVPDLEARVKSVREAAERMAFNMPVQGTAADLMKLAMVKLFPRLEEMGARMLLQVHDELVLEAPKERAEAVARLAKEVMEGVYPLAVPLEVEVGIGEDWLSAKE

Regarding `Cc1cn([C@@H]2O[C@@]3(CO)CO[C@@H]2[C@@H]3O)c(=O)[nH]c1=O` [2',4'-bridged thymidine], the Ki (commonly the equilibrium dissociation constant of an inhibitor or competing ligand from its target) at Taq DNA polymerase [1] turned out to be 9.7 ± 1.1 µM. In the case of `Nc1ccn([C@H]2CC[C@@H](COP(=O)(O)OP(=O)(O)OP(=O)(O)O)O2)c(=O)n1` [ddCTP], on Taq DNA polymerase [2], the IC50 (usually the concentration at which inhibition is half-maximal) was 300 ± 100 µM.
